{"source": "patent US8540983B2", "about": "“Debriding composition from bromelain and methods of production thereof” (MediWound Ltd., priority 2004, dated 2013)", "system": "Debrase esterolytic activity", "assay": "Esterolytic activity of Debrase (CLN substrate) and its inhibition by bromelain HPLC fractions", "format": "biochemical, Ananas comosus", "conditions": "Debrase + 1 mM Iodoacetamide, pH 4.6", "procedure": "Bromelain powder (2.5 g) was suspended in 10 ml of 0.1M potassium phosphate buffer pH 6.1 saturated with phenyl mercury acetate for 10 min. After centrifugation for 10 min (3500 rpm), one ml of the supernatant was applied to gel filtration chromatography on a HiLoad 16/60 Superdex 75 HPLC preparation grade column, equilibrated and eluted with the same buffer. Fractions of 5 ml were collected 30 minutes after sample application. For each of the eluted fractions, three parameters were measured: (i) absorbance at 280 nm (A280); (ii) esterolytic activity; and (iii) inhibition of Debrase esterolytic activity.\nThe esterolytic activity of the bromelain fractions was assayed spectrophotometrically at pH 4.6 using the chromogenic substrate p-nitrophenyl Na-benzyloxycarbonyl-L-lysinate (CLN) as follows:\nOne milliliter of sodium acetated buffer (10 mM) containing 0.1 M KCl and 1 mM L-cysteine, pH 4.6 was placed in a plastic cuvette at 25° C. One hundred μl of the eluted fraction (at a concentration of 2.5 mg/ml) were added. The solution was incubated for 2 min and then 50 μl of CLN solution (2.5 mM in acetonitrile 10% water) were added. The cuvette was mixed and the increase in absorbance at 317 nm was monitored for 5 minutes. The spontaneous hydrolysis of the substrate was monitored in the presence of buffer only instead of the eluted fractions."}
{"smiles": "NC(=O)CI", "note": "[Iodoacetamide]", "values": [{"measurement": "% Inhibition", "value": 37.0, "unit": "%"}, {"measurement": "Proteolytic activity (esterolytic activity of Debrase)", "value": 593}]}
